From US20240317762A1, “PHTHALAZINONE-BASED PARP-1 INHIBITORS” (Oregon Health & Science University, priority 2021, published 2024)
pEC50, pIC50: −log10 of the molar value.

Key:
HEK 293T cells = assay: DNA synthesis assay (EdU incorporation); assay type: cell-based, human; conditions: 1 μM, 18 hours, then 10 μM EdU 1.5 hours
Method: HEK 293T cells were seeded onto poly-d-lysine treated glass coverslips. […] After incubation, cells were treated with 10 μM EdU (5-ethynyl-2′-deoxyuridine) for 1.5 hours and subsequently fixed with 4% Sucrose/4% Paraformaldehyde in PBS for 15 minutes at RT. Cells were washed 2× with 3% BSA in PBS and permeabilized with 0.3% Triton X-100 in PBS for 20 minutes at RT. After two additional 3% BSA in PBS washes, coverslips were incubated with 500 μl Click-iT reaction cocktail [1× Click-iT reaction buffer, 2 mM CuSO4, 5 μM TAMRA Azide, Reaction buffer additive] for 30 minutes at room temperature (RT) protected from the light. Cells were washed once more with 3% BSA in PBS and twice more with 1×PBS before being mounted using ProLong Gold antifade reagent with DAPI (Invitrogen). All immunofluorescence images were taken on a Zeiss ApoTome2 on Axiolmager and analyzed using Zeiss software. Mean intensity of the TAMRA signal was measured after imposing DAPI masks over the nucleus of each cell. All cells within a 20× image, was analyzed (˜3000 cells/condition).
Error bars represent SEM. […] Error bars represent SEM. […] Error bars represent SEM.

PARP-1 [1] = target: T1, PARP-1 (Homo sapiens, UniProt P09874); assay: PARP-1 auto-PARylation activity assay in cells; assay type: cell-based
T1 sequence (P09874 whole entry): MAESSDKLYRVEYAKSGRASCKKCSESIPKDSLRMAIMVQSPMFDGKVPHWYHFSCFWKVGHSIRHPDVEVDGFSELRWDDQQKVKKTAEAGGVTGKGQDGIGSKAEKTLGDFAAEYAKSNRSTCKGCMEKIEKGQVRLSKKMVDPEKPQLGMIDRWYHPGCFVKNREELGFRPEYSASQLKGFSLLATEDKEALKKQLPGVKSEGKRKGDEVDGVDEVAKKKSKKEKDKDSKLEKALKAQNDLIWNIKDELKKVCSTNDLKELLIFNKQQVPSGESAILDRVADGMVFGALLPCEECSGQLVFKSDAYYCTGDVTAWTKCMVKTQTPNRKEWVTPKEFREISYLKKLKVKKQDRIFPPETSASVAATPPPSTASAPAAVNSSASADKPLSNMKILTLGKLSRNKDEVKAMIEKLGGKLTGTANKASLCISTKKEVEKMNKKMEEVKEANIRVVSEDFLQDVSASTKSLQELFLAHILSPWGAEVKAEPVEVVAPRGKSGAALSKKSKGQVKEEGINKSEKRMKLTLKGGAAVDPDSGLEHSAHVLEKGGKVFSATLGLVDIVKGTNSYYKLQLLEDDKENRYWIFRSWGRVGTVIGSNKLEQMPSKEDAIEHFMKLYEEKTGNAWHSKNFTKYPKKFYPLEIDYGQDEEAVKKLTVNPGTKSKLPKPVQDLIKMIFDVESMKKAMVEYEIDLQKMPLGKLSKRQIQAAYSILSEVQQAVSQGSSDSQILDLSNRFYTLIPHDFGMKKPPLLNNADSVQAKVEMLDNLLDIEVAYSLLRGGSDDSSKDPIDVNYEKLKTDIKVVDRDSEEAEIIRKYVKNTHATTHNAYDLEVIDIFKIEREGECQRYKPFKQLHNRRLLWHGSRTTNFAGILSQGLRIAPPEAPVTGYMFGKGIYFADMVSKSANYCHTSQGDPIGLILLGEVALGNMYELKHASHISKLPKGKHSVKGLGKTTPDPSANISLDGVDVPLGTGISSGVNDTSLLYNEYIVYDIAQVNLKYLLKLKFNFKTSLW
Method: Cells were washed with PBS, and lysed in RIPA buffer (50 mM Tris-HCl [pH 8.0], 150 mM NaCl, 0.1% SDS, 1% Triton X-100, 1× cOmplete™ protease inhibitors (Roche), and 1 μM Veliparib). […] Following quantification, 4× Laemmli sample buffer with 5% β-mercaptoethanol was added to 25-50 μg of protein.
Membrane blots were blocked with 5% milk-PBST for 1 h at RT, followed by incubation with a rabbit pan-ADP-ribose binding reagent (Cell Signaling), a rabbit PARP-1 antibody (Bethyl Laboratories), or a mouse b-actin antibody (Santa Cruz Biotechnology) for 2 h at RT, followed by incubation with HRP-conjugated secondary antibodies. […] Blots were imaged for chemiluminescent signal on a ChemiDoc MP system (BioRad). Statistical significance was established through multiple unpaired t-tests with nonlinear regression fit analysis.
FIGS. 5A-5F. […] An unlabeled competitor was added and the decrease in fluorescence polarization was measured across time. […] Error bars represent SEM. […] Error bars represent SEM. […] Cells were subsequently lysed using RIPA buffer, run out on SDS-PAGE, and probed for ADPr (Cell Signaling) and PARP-1 (Bethyl Laboratories). FIG. 5F) Quantification of western blot images. ADPr values are normalized to PARP-1 within each replicate and plotted as percentage compared to DMSO. Error bars indicate SEM (n=3).

PARP-1 [2] = target: T1, PARP-1; assay: in-cell competition labeling with ad-olaparib photoaffinity probe; assay type: cell-based
Method: Photocrosslinking in intact cells. HEK293 CRL and PARP-1 KO cells were grown in DMEM for 2 days in a 60 mm dish for 2 days to reach 80-90% confluency. […] Cells were then washed once with PBS, covered with PBS and irradiated for 5 min in the RPR-100 Photochemical Reactor (Rayonet) equipped with 350 nm lamps at 4° C. Cells were lysed on ice in 1% SDS, 1% Triton X-100 and EDTA-free protease inhibitor cocktail (Roche) in PBS for 10 min and then probe sonicated to shear the nuclear DNA. Protein concentration was determined with Bio-Rad Protein assay. The lysate was diluted in PBS to a final Click reaction concentration of 2 mg/mL.
Click Chemistry. Reaction was started by mixing 30 μL of each sample with 15 μL of PBS based 3× Click reaction mixture containing (final concentrations): 100 μM Tris[(1-benzyl-1H-1,2,3triazol-4-yl)methyl]amine (TBTA, Click Chemistry Tools), 1 mM CuSO4, 40 μM tetramethylrhodamine (TAMRA)-azide (Click Chemistry Tools), 1 mM Tris(2-carboxyethyl)phosphine hydrochloride (TCEP, Thermo Fisher) and 15% tert-Butyl alcohol, and let to procced for 1 h at RT while gently shaking. Reactions were stopped by adding 4× Laemmli sample buffer and boiling at 95° C. for 5 min.
In gel fluorescence, western blotting and quantification. Samples were loaded to 8 or 10% SDS-polyacrylamide gels and run until the dye front left the gel. First, in-gel fluorescence was detected with ChemiDoc XRS+ (Biorad) using Rhodamine filter and then the proteins were transferred on nitrocellulose membrane, the membrane was blocked and probed for PARP-1 (1:3000) and alpha-tubulin (1:1000). Both antibodies were from cell signaling. Band intensities we quantified with ImageJ.
FIGS. 6A-6E. […] 0.1 μM ad-olaparib (chemical structure indicated in panel a) was added to the cells for 1 hour before undergoing a UV treatment for 5 minutes in cold PBS. Cells were lysed and sonicated in PBS (1% Triton X-100+1% SDS), clicked with TAMRA-azide and run out on SDS-PAGE. The gel was imaged for TAMRA and probed for PARP-1 (Bethyl Laboratories), and alpha-tubulin (X). FIGS. 6B, 6D) Quantification of western blot images. TAMRA or ADPr values are normalized to PARP-1 within each replicate and plotted as percentage compared to DMSO. Error bars indicate SEM (n=3-4). Statistical significance of off-rate calculated via multiple t-tests (p<0.05). […] Cells were subsequently treated with PARGi (10 μM) for 30 minutes, lysed using RIPA buffer, run out on SDS-PAGE, and probed for ADPr (Cell Signaling) and PARP-1 (Bethyl Laboratories). FIG. 6E) ES-8 cells were treated with indicated concentration of inhibitors for 72 hours before measuring cell viability using the CellTiter-Glo kit (Promega G7573). IC50 values were calculated using R statistical software.

PARP-1 [3] = target: T1, PARP-1; assay: in vitro PARP-1 auto-PARylation assay (SRPK2 plate assay); assay type: biochemical; parameters: The full-length WT PARP-1 protein used in these assays; made in house; conditions: read-out: IC50 against PARP-1 catalytic activity (auto-PARylation)
Method: IC50 SRPK2 Plate Assays were performed as previously described (21). Log(inhibitor) versus response curves were fit using non-linear regression with variable slope. Mean IC50 values for each compound were derived from a minimum of three separate replicates.

(S)-4-(difluoro(3-(6-methyl-3-(trifluoromethyl)-5,6,7,8-tetrahydro-[1,2,4]triazolo[4,3-a]pyrazine-7-carbonyl)phenyl)methyl)phthalazin-1(2H)-one [AZ0108]
block of EdU incorporation (HEK 293T cells): 65%
pEC50 (PARP-1 [1]; 30 min inhibitor, then PARG inhibitor PDD00017273, read-out: EC50 inhibiting PARP-1 PARylation in HEK 293 cells): 7.37
pIC50 (PARP-1 [1]; FIG. 5F, nonlinear regression, read-out: IC50 of dose curves, quantification of western blot (ADPr normalized to PARP-1)): 7.37
labeling of PARP-1 by ad-olaparib after pre-treatment (PARP-1 [2]; 10 μM inhibitor, 0.1 μM ad-olaparib): substantially blocked
recovery of labeling of PARP-1 by ad-olaparib after washout (PARP-1 [2]; washout (3 h)): more than 2 fold
pIC50 (PARP-1 [3]): 7.92
